This note sets out measurements from US20220135526A1, “QUATERNARY AMMONIUM SALT COMPOUND, PREPARATION METHOD THEREFOR AND USE THEREOF” (WEST CHINA HOSPITAL, SICHUAN UNIVERSITY, priority 2019, published 2022).

One assay has as its system rat's sciatic nerve. As to the kind of experiment: Local anesthetic effect after injection near the rat sciatic nerve (von Frey stimulation; Postural Extensor Thrust for motor function). The following applies: SD rats, 0.5 mL near sciatic nerve, compounds 20 mmol/mL; for Duration of motor block: Postural Extensor Thrust; for Duration of motor block / Duration of sensory block: levobupivacaine 0.75%, lidocaine 2%; for Local anesthesia onset time: levobupivacaine 0.75% (22 mmol/L), lidocaine 2% (74 mmol/L); for Duration of sensory block: von Frey. It counts as in vivo. The method, then:
Dosage: for lidocaine group, lidocaine was formulated with distilled water into a solution at the concentration of 2% (74 mmol/L); for levobupivacaine group, levobupivacaine was formulated with distilled water into a solution at the concentration of 0.75% (22 mmol/L); the compound of the present invention was formulated with distilled water into a solution at the concentration of […].
The injection volume for each rat was 0.5 mL, which was guided by a nerve locator and injected near the rat's sciatic nerve. Using von Frey stimulator, the rats were stimulated the soles of the feet in the injected side, to observe the effect of local anesthesia. Meanwhile, Postural Extensor Thrust (PET) was used to evaluate the motor function of the rat: the rat was lifted vertically and the hindlimb in the injected side pedaled on the platform of the electronic balance. […] When the limb was completely paralyzed, the reading was the limb's own weight, about 20 g. If the measured value was more than half of the difference between the baseline and the limb weight, the motor function was regarded as recovery, and if the value was […], the motor function was regarded as loss.

The next assay has as its system back skin of SD rat. Put plainly: Local anesthetic effect by subcutaneous infiltration (back skin, Von Frey fiber 100 g). The class given is in vivo. As to conditions: SD rats, 0.5 mL subcutaneous in saline; compounds 6 mmol/L, controls 0.75% (22 mmol/L) and 2% (74 mmol/L). How it is done: After the back of SD rat weighing 250-300 g (half female and half male) was shaved and disinfected, a circle with a diameter of about 1.5 cm was drawn on the side of the exposed back, and the circle is divided into 6 equal parts. […] Among the Von Frey fiber yarns, the one with a strength of 100 g was bound to the needle for local skin stimulation. One minute After the drug was injected, the above method was used to stimulate in 6 divisions. […] If back skin contraction was observed, the local anesthetic effect was considered as loss. […] Each compound was tested with 10 rats.

Counter-ions that a name gives are not always drawn.

Turning to `CCCCCCCCCC[N+](CCCCCCCC)(CCCCCCCCCCCN1CCCCC1C(=O)Nc1c(C)cc(C)cc1C)CC(=O)Nc1c(C)cccc1C` (stereo not drawn) [Example 24 product], in the assay with rat's sciatic nerve, the “Duration of motor block” value was determined as 11 h, the “Local anesthesia onset time” value is 4 min and the “Duration of sensory block” value is 54 h. In addition, in the assay with back skin of SD rat, the “Duration of local anesthesia (median)” value amounted to 89 h and the “Local anesthesia onset time (median)” value was 2 min.

Consider `CCCCCC[N+](CCCCCC)(CCOCCOCCN1CCCCC1C(=O)Nc1c(C)cc(O)cc1C)CC(=O)Nc1c(C)cc(OC)cc1C` (stereo not drawn) [Example 4 product], for which, in the assay on rat's sciatic nerve, the “Duration of motor block” value was 13 h, the “Local anesthesia onset time” value is reported as 7 min and the “Duration of sensory block” value stood at 23 h. Moreover, in the assay on back skin of SD rat, the “Duration of local anesthesia (median)” value was found to be 35 h and the “Local anesthesia onset time (median)” value was determined as 1 min.

Turning to `CCCCC[N+](CCCCCCCN1CCCCCC1C(=O)Nc1c(C)cccc1C)(CCOCC)CC(=O)Nc1c(C)cccc1C` (stereo not drawn) [Example 70 product], in the assay on rat's sciatic nerve, the “Duration of motor block” value was 17 h, the “Local anesthesia onset time” value is reported as 2 min and the “Duration of sensory block” value came out at 53 h. In the assay with back skin of SD rat, the “Duration of local anesthesia (median)” value is 75 h and the “Local anesthesia onset time (median)” value is given as 4 min.

On to `CCCCC[N+](CCCCC)(CCCCCCN1CCC1C(=O)Nc1c(C)cccc1C)CC(=O)Nc1c(C)cccc1C` (stereo not drawn) [Example 65 product], for which, in the assay on rat's sciatic nerve, the “Duration of motor block” value stood at 19 h, the “Local anesthesia onset time” value is 5 min and the “Duration of sensory block” value turned out to be 59 h. Further, in the assay with back skin of SD rat, the “Duration of local anesthesia (median)” value was found to be 68 h and the “Local anesthesia onset time (median)” value is 1 min.

As to `CCCCC[N+](CCO)(CCCCCCN1CCCC1C(=O)Nc1c(C)cccc1C)CC(=O)Nc1c(C)cccc1C` (stereo not drawn) [Example 59 product], in the assay on rat's sciatic nerve, the “Duration of motor block” value came out at 15 h, the “Local anesthesia onset time” value came to 1 min and the “Duration of sensory block” value was 54 h. For the same molecule, in the assay with back skin of SD rat, the “Duration of local anesthesia (median)” value is listed as 72 h and the “Local anesthesia onset time (median)” value was found to be 1 min.

As to `CCCCN1CCCC[C@H]1C(=O)Nc1c(C)cccc1C` [0.75% levobupivacaine hydrochloride, levobupivacaine hydrochloride, reference compound], in the assay with rat's sciatic nerve, the “Duration of motor block” value was found to be 2.5 h, the “Local anesthesia onset time” value came out at 1 min and the “Duration of sensory block” value was 2.5 h. Also, in the assay on back skin of SD rat, the “Duration of local anesthesia (median)” value was 7 h and the “Local anesthesia onset time (median)” value amounted to 1 min.

For `CCCCC[N+](CCO)(CCCCCCN1CCCCC1C(=O)Nc1c(C)cccc1C)CC(=O)Nc1c(C)cccc1C.[Br-]` (stereo not drawn) [Example 13 product], in the assay with rat's sciatic nerve, the “Duration of motor block” value was 14 h, the “Local anesthesia onset time” value came out at 4 min and the “Duration of sensory block” value is reported as 55 h. Also, in the assay on back skin of SD rat, the “Duration of local anesthesia (median)” value was determined as 53 h and the “Local anesthesia onset time (median)” value is 4 min.

Take `Cc1cccc(C)c1NC(=O)C[N+](CCCCO)(CCCCO)CCCCCCN1CCC1C(=O)Nc1c(C)cccc1C` (stereo not drawn) [Example 66 product]: in the assay with rat's sciatic nerve, the “Duration of motor block” value came out at 10 h, the “Local anesthesia onset time” value came to 1 min and the “Duration of sensory block” value is 60 h. Besides, in the assay with back skin of SD rat, the “Duration of local anesthesia (median)” value is reported as 87 h and the “Local anesthesia onset time (median)” value came to 1 min.

For `CCCCC[N+](CCCCC)(CCCCCCCN1CCCCCC1C(=O)Nc1c(C)cccc1C)CC(=O)Nc1c(C)cccc1C` (stereo not drawn) [Example 68 product], in the assay on rat's sciatic nerve, the “Duration of motor block” value came out at 21 h, the “Local anesthesia onset time” value came to 1 min and the “Duration of sensory block” value came out at 79 h. Further, in the assay on back skin of SD rat, the “Duration of local anesthesia (median)” value was 73 h and the “Local anesthesia onset time (median)” value came out at 3 min.

`Cc1cccc(C)c1NC(=O)C[N+](CCO)(CCO)CCCCCCN1CCCCC1C(=O)Nc1c(C)cccc1C` (stereo not drawn) [Example 17 product]: in the assay on rat's sciatic nerve, the “Duration of motor block” value worked out at 18 h, the “Local anesthesia onset time” value is reported as 5 min and the “Duration of sensory block” value was 37 h. For the same molecule, in the assay with back skin of SD rat, the “Duration of local anesthesia (median)” value was found to be 56 h and the “Local anesthesia onset time (median)” value was found to be 2 min.

Consider `Cc1cccc(C)c1NC(=O)C[N+]1(CCCCN2CCCCC2C(=O)Nc2c(C)cccc2C)C(C)COCC1C` (stereo not drawn) [Example 51 product], for which, in the assay with rat's sciatic nerve, the “Duration of motor block” value came to 19 h, the “Local anesthesia onset time” value is given as 5 min and the “Duration of sensory block” value is 44 h. Besides, in the assay with back skin of SD rat, the “Duration of local anesthesia (median)” value is recorded as 89 h and the “Local anesthesia onset time (median)” value is 1 min.

As for `CCCCC[N+](CCCO)(CCCCCCN1CCCCC1C(=O)Nc1c(C)cccc1C)CC(=O)Nc1c(C)cccc1C.[Br-]` (stereo not drawn) [Example 14 product], in the assay on rat's sciatic nerve, the “Duration of motor block” value was determined as 13 h, the “Local anesthesia onset time” value is reported as 5 min and the “Duration of sensory block” value stood at 41 h. In addition, in the assay with back skin of SD rat, the “Duration of local anesthesia (median)” value is reported as 75 h and the “Local anesthesia onset time (median)” value is 2 min.

As to `Cc1cccc(C)c1NC(=O)C[N+]1(CCCCN2CCCCC2C(=O)Nc2c(C)cccc2C)CC(C)OC(C)C1` (stereo not drawn) [Example 50 product], in the assay with rat's sciatic nerve, the “Duration of motor block” value was 13 h, the “Local anesthesia onset time” value stood at 5 min and the “Duration of sensory block” value is 56 h. For the same molecule, in the assay on back skin of SD rat, the “Duration of local anesthesia (median)” value is reported as 56 h and the “Local anesthesia onset time (median)” value amounted to 2 min.

Consider `Cc1cccc(C)c1NC(=O)C[N+](CCCCCCCS)(CCCCCCCN1CCCCC1C(=O)Nc1c(C)cccc1C)CCCCCC(=O)O` (stereo not drawn) [Example 45 product], for which, in the assay on rat's sciatic nerve, the “Duration of motor block” value is listed as 20 h, the “Local anesthesia onset time” value worked out at 3 min and the “Duration of sensory block” value was found to be 58 h. Also, in the assay on back skin of SD rat, the “Duration of local anesthesia (median)” value stood at 89 h and the “Local anesthesia onset time (median)” value was found to be 1 min.

Regarding `CCCCC[N+](CCCCO)(CCCCCCN1CCC1C(=O)Nc1c(C)cccc1C)CC(=O)Nc1c(C)cccc1C` (stereo not drawn) [Example 64 product], in the assay on rat's sciatic nerve, the “Duration of motor block” value came out at 13 h, the “Local anesthesia onset time” value was 3 min and the “Duration of sensory block” value stood at 67 h. Moreover, in the assay on back skin of SD rat, the “Duration of local anesthesia (median)” value was found to be 69 h and the “Local anesthesia onset time (median)” value was 1 min.

On to `CCOCC[N+](CCCCCCN1CCC1C(=O)Nc1c(C)cccc1C)(CCOCC)CC(=O)Nc1c(C)cccc1C` (stereo not drawn) [Example 67 product], for which, in the assay with rat's sciatic nerve, the “Duration of motor block” value came out at 14 h, the “Local anesthesia onset time” value is listed as 1 min and the “Duration of sensory block” value was 67 h. In the assay on back skin of SD rat, the “Duration of local anesthesia (median)” value is listed as 58 h and the “Local anesthesia onset time (median)” value was determined as 1 min.

For the molecule `Cc1cccc(C)c1NC(=O)C[N+](CO)(CCCCO)CCCCCCN1CCCCC1C(=O)Nc1c(C)cccc1C.[Br-]` (stereo not drawn) [Example 19 product], in the assay on rat's sciatic nerve, the “Duration of motor block” value was 10 h, the “Local anesthesia onset time” value stood at 5 min and the “Duration of sensory block” value turned out to be 39 h. For the same molecule, in the assay on back skin of SD rat, the “Duration of local anesthesia (median)” value came to 62 h and the “Local anesthesia onset time (median)” value is 1 min.

Take `CCCCC[N+](CCCCO)(CCCCCCN1CCCCC1C(=O)Nc1c(C)cccc1C)CC(=O)Nc1c(C)cccc1C.[Br-]` (stereo not drawn) [Example 16 product]: in the assay on rat's sciatic nerve, the “Duration of motor block” value was 17 h, the “Local anesthesia onset time” value is listed as 5 min and the “Duration of sensory block” value is given as 60 h. Also, in the assay with back skin of SD rat, the “Duration of local anesthesia (median)” value is 54 h and the “Local anesthesia onset time (median)” value amounted to 2 min.
